Reference: patent EP3046573B1, “AMYLIN ANALOGUES” (Zealand Pharma A/S, priority 2013, dated 2015)
Numbered stars: 1 amine (or outer) side, 2 acyl side, 3 side chain; on linkers, the order of the positions; unused ones are H or OH. Bridge positions count the residues as written; N and C are the ends. Square brackets hold non-standard residues; d marks the D form. Peptide text beside a SMILES is read from it. * marks the point of attachment. C20 diacid = O=C(O)CCCCCCCCCCCCCCCCCCC(=O)*; γGlu = O=C(O)[C@H](CCC(=O)[*:2])N[*:1]; NMeI = CC[C@H](C)[C@H](NC)C(=O)O; Sar = CNCC(=O)O

Columns and labels:
[1] = Solubility assessment (turbidity absorbance at 325 nm); type: physicochemical; conditions: stock 2 mg/ml diluted 1:1, ambient temperature (typically 25°C), n=1; for Solubility, Acetate buffer pH 4: 100 mM acetate buffer pH 4.0; for Solubility, Acetate buffer pH 5: 100 mM acetate buffer pH 5.0; for Solubility, Histidine buffer pH 6: 100 mM histidine buffer pH 6.0; for Solubility, Histidine buffer pH 7: 100 mM histidine buffer pH 7.0; for Solubility, Phosphate buffer pH 6: 100 mM phosphate buffer pH 6.0; for Solubility, Phosphate buffer pH 7: 100 mM phosphate buffer pH 7.0; for Solubility, Phosphate buffer pH 7.5: 100 mM phosphate buffer pH7.5
Outline: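 Stock 2 mg/ml peptide, H2O/HCl pH 2.5; 1:1 into 100 mM buffers: acetate pH 4.0/5.0, His pH 6.0/7.0, phosphate pH 6.0/7.0/7.5. A280 + A325, ~25°C, n=1. Soluble ≥ 1 mg/ml if A325 ≤ 0.02.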

[2] = target: T1, human amylin receptor 3 (hAMYR3) consisting of hCTR2 co-expressed with human Receptor Activity Modifying Protein 3 (hRAMP3) (Homo sapiens, UniProt O60896+P30988); test: hAMYR3 assay: induction of cAMP (AlphaScreen cAMP Assay kit) in COS7 cells expressing hAMYR3; type: cell-based
T1 construct: expressed in transfected cells
T1 sequence (P30988 25-474): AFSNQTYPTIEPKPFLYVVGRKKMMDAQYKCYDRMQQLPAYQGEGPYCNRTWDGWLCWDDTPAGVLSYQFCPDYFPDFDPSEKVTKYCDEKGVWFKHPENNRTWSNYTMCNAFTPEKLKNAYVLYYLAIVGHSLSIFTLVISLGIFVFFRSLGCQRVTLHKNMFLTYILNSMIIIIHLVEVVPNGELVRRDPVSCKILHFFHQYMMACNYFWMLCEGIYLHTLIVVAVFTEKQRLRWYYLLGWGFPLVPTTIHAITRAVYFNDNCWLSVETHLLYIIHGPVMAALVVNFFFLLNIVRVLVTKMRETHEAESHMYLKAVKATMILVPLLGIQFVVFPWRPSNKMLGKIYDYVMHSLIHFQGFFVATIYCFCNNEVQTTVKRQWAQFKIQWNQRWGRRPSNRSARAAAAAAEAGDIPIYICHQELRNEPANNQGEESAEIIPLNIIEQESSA
T1 sequence (O60896 24-148 partner): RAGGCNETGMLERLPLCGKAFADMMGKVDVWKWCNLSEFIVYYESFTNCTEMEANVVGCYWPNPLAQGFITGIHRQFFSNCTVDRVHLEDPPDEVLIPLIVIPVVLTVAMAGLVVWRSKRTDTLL
Outline: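 Stable COS7 clone co-expressing hCTR2 and hRAMP3, stimulated 15 min at 37° C with increasing peptide in Tyrode buffer pH 7.4 with 100 µM IBMX and 0.1% casein. cAMP measured by AlphaScreen after lysis; EC50 and % efficacy versus pramlintide from 4PL fit.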

[3] = target: T2, human calcitonin receptor (hCTR2) (Homo sapiens, UniProt P30988); test: hCTR2 assay: induction of cAMP (AlphaScreen cAMP Assay kit) in COS7 cells expressing hCTR2; type: cell-based
T2 construct: expressed in transfected cells
T2 sequence (P30988 25-474): T1 sequence (P30988 25-474)
Outline: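 Stable RAMP-naive COS7 clone expressing hCTR2 was stimulated with increasing peptide concentrations in Tyrode buffer (pH 7.4) with 100 µM IBMX and 0.1% casein for 15 min at 37° C. Cells were lysed and cAMP measured by AlphaScreen. EC50 and efficacy relative to pramlintide came from 4PL curve fits.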

Question: Which results are given for `CC[C@H](C)[C@@H](C(=O)N[C@@H](CC(C)C)C(=O)N[C@@H](CO)C(=O)N[C@@H](CO)C(=O)N[C@H](C(=O)N[C@@H](CC(N)=O)C(=O)N[C@H](C(=O)NCC(=O)N[C@@H](CO)C(=O)N[C@@H](CC(N)=O)C(=O)N[C@H](C(=O)NCC(N)=O)[C@@H](C)O)C(C)C)[C@@H](C)O)N(C)C(=O)[C@H](C)NC(=O)CN(C)C(=O)[C@H](Cc1ccccc1)NC(=O)[C@H](CC(N)=O)NC(=O)[C@H](CC(N)=O)NC(=O)[C@H](CO)NC(=O)[C@H](CO)NC(=O)[C@H](CCCNC(=N)N)NC(=O)[C@H](Cc1c[nH]cn1)NC(=O)[C@H](CC(C)C)NC(=O)[C@H](Cc1ccccc1)NC(=O)[C@H](CCC(=O)O)NC(=O)[C@H](C)NC(=O)[C@H](CC(C)C)NC(=O)[C@H](CCCNC(=N)N)NC(=O)[C@H](CCC(N)=O)NC(=O)[C@@H](NC(=O)[C@H](C)NC(=O)[C@@H]1CSSC[C@H](NC(=O)[C@H](CCCNC(=N)N)NC(=O)CC[C@H](NC(=O)CCCCCCCCCCCCCCCCCCC(=O)O)C(=O)O)C(=O)N[C@@H](CC(N)=O)C(=O)N[C@@H]([C@@H](C)O)C(=O)N[C@@H](C)C(=O)N[C@@H]([C@@H](C)O)C(=O)N1)[C@@H](C)O` [Compound 96, [19CD]-isoGlu-RC()NTATC()ATQRLAEFLHRSSNNF-Gly(Me)-A-Ile(Me)-LSSTNVGSNTG-NH2] ({C20 diacid-γGlu}-RCNTATCATQRLAEFLHRSSNNF[Sar]A[NMeI]LSSTNVGSNTG-NH2; disulfide 2-7)?
Answer: Solubility, Acetate buffer pH 4 [1]: SS (SS indicates solubility ≥ 1mg/ml); Solubility, Acetate buffer pH 5 [1]: SS (SS indicates solubility ≥ 1mg/ml); Solubility, Histidine buffer pH 6 [1]: SS (SS indicates solubility ≥ 1mg/ml); Solubility, Histidine buffer pH 7 [1]: SS (SS indicates solubility ≥ 1mg/ml); Solubility, Phosphate buffer pH 6 [1]: SS (SS indicates solubility ≥ 1mg/ml); Solubility, Phosphate buffer pH 7 [1]: SS (SS indicates solubility ≥ 1mg/ml); Solubility, Phosphate buffer pH 7.5 [1]: SS (SS indicates solubility ≥ 1mg/ml); EC50 [2]: 5.6 nM; EC50 [3]: 0.34 nM

Question: With `CC[C@H](C)[C@@H](C(=O)N[C@@H](CC(C)C)C(=O)N[C@@H](CO)C(=O)N[C@@H](CO)C(=O)N[C@H](C(=O)N[C@@H](CC(N)=O)C(=O)N[C@H](C(=O)NCC(=O)N[C@@H](CO)C(=O)N[C@@H](CC(N)=O)C(=O)N[C@H](C(=O)N[C@@H](C)C(N)=O)[C@@H](C)O)C(C)C)[C@@H](C)O)N(C)C(=O)[C@H](C)NC(=O)CN(C)C(=O)[C@H](Cc1ccccc1)NC(=O)[C@H](CC(N)=O)NC(=O)[C@H](CC(N)=O)NC(=O)[C@H](CO)NC(=O)[C@H](CO)NC(=O)[C@H](CCCNC(=N)N)NC(=O)[C@H](Cc1c[nH]cn1)NC(=O)[C@H](CC(C)C)NC(=O)[C@H](Cc1ccccc1)NC(=O)[C@H](CCC(=O)O)NC(=O)[C@H](C)NC(=O)[C@H](CC(C)C)NC(=O)[C@H](CCCNC(=N)N)NC(=O)[C@H](CCC(N)=O)NC(=O)[C@@H](NC(=O)[C@H](C)NC(=O)[C@@H]1CSSC[C@H](NC(=O)[C@H](CCCNC(=N)N)NC(=O)CC[C@H](NC(=O)CCCCCCCCCCCCCCCCCCC(=O)O)C(=O)O)C(=O)N[C@@H](CC(N)=O)C(=O)N[C@@H]([C@@H](C)O)C(=O)N[C@@H](C)C(=O)N[C@@H]([C@@H](C)O)C(=O)N1)[C@@H](C)O` [Compound 97, [19CD]-isoGlu-RC()NTATC()ATQRLAEFLHRSSNNF-Gly(Me)-A-Ile(Me)-LSSTNVGSNTA-NH2] ({C20 diacid-γGlu}-RCNTATCATQRLAEFLHRSSNNF[Sar]A[NMeI]LSSTNVGSNTA-NH2; disulfide 2-7) as the molecule, how does the “Solubility, Acetate buffer pH 4” value [1] read?
Answer: The value was “SS (SS indicates solubility ≥ 1mg/ml)”.

Question: And the “Solubility, Acetate buffer pH 5” value [1]?
Answer: Its value is “SS (SS indicates solubility ≥ 1mg/ml)”.

Question: What about the “Solubility, Histidine buffer pH 6” value [1] of the same molecule?
Answer: The value was “SS (SS indicates solubility ≥ 1mg/ml)”.

Question: And the “Solubility, Histidine buffer pH 7” value [1]?
Answer: The value was “SS (SS indicates solubility ≥ 1mg/ml)”.

Question: What about the “Solubility, Phosphate buffer pH 6” value [1] of the same molecule?
Answer: Its value is “SS (SS indicates solubility ≥ 1mg/ml)”.

Question: And the “Solubility, Phosphate buffer pH 7” value [1]?
Answer: Its value is “SS (SS indicates solubility ≥ 1mg/ml)”.

Question: And the “Solubility, Phosphate buffer pH 7.5” value [1]?
Answer: Its value is “SS (SS indicates solubility ≥ 1mg/ml)”.

Question: What about the EC50 [2] of the same molecule?
Answer: Its EC50 is 0.68 nM.

Question: What about the EC50 [3] of the same molecule?
Answer: Its EC50 is 0.33 nM.
